Laboratory results as given in patent US20230157998A1, “Methods of Inhibiting SARS-CoV-2 Replication and Treating Corona Virus Disease 2019” (Pfizer Inc., priority 2020, published 2023).
In brackets after ≈: the same amount, converted by molar mass. Several values for one entry are separate records, joined by “and”; a condition that tells them apart may be missing. Identical values can stand only once. Like-named read-outs stand apart in the source and are kept apart here.

Experiments:
[1] = Saturated solubility in co-solvent/co-solvent/water mixtures (F3); settings: 25 °C, pH 5, aqueous buffer, thermodynamic from solid, PF-00835321 Saturated Solubility, pH 5, 5 mM citrate, PEG400 0.75, Ethanol […] v/v
[2] = Physical stability on storage of the 6 mg/mL formulation (F11); format: physicochemical; settings: 80 mg/mL SBE-β-CD, […] v/v ethanol, 3.4% v/v PEG400, 6 mg/mL PF-00835231
Protocol: To further assess the robustness of formulations prepared in Formulation Example F10, a single formulation was selected to scale-up for use in a stability study.
An additional 20 mL solution of 300 mg/mL SBE-β-CD was similarly prepared.
14.29 mL of the citrate buffer and SBE-β-CD stock solution was then added to two separate 20 mL scintillation vials. […] The drug product solutions were mixed overnight and filtered through a 0.2 um PVDF filter. 0.5 mL aliquots of drug product solutions were then filled into 4 mL vials, stoppered, crimped, and placed in temperature-controlled chambers at −20° C., 4° C., and 25° C.
Furthermore, if the solutions were supersaturated at room temperature, exposure to refrigerated or frozen storage temperatures should induce precipitation and cause a decrease in assay. […] (top), 4° C. (center), and 25° C. (bottom). For each condition, data from two separate samples is plotted and is shown with a linear fit to the data.

[3] = Admixture physical stability in 0.9% w/v sodium chloride; settings: 25° C.
[4] = Assay over 7 days, 80 mg/mL SBE-β-CD with PEG400/ethanol (F10); settings: ~3:1 PEG400:ethanol (1.5-6.0% v/v), 2, 4, 6 and 8 mg/mL PF-00835231, ambient
[5] = tested on: SARS-CoV-2 USA-WA1/2020; assay: microbe, parasite or virus in culture; format: cell-based
[6] = pH 7.4
[7] = rat, dog, monkey, in vivo
[8] = tested on: HCOV-229E; assay: Antiviral activity in MRC-5 cells; format: cell-based; settings: lung cell lines (A549-ACE2 and MRC5)
[9] = tested on: SARS-CoV-2; assay: Antiviral activity in HeLa-ACE2 cells (viral protein detection); format: cell-based; settings: Severe acute respiratory syndrome coronavirus 2, compound alone
[10] = tested on: SARS-CoV-2; settings: for Bliss Synergy Score / HSA Synergy Score / Loewe Synergy Score: with Remdesivir; for classification of the combination effect: with remdesivir
[11] = Intravenous pharmacokinetics; settings: rat, dog, monkey, in vivo, 2 mg/kg
[12] = Freeze-thaw experiment; settings: solutions of the order-of-addition experiment, −20° C. freezer ~24 hours, thawed at room temperature
[13] = Assay of CD/co-solvent/water formulations of different compositions over 5 days (F8); settings: all formulations of Formulation Table F11
[14] = tested on: CYP1A2, 2B6, 2C8, 2C9, 2C19, 2D6, and 3A; settings: read-out: IC50, reversible inhibition of CYP enzymes; probe substrates in pooled HLM
[15] = tested on: BetaCov GHB-03021/2020 strain; assay: microbe, parasite or virus in culture; format: cell-based, SARS-CoV-2; settings: Severe acute respiratory syndrome coronavirus 2
[16] = physchem; settings: 25 °C, pH 5, aqueous buffer, thermodynamic from solid, Saturated solubility for PF-00835231 at 25° C.
[17] = tested on: SARS-CoV-2 USA-NYU-VC-003/2020; assay: In vitro drug efficacy in A549+ACE2 cells; format: cell-based; settings: Severe acute respiratory syndrome coronavirus 2, 24 hours post infection
[18] = 2.5x dilution in 0.9% w/v sodium chloride
[19] = 10x dilution in 0.9% w/v sodium chloride
[20] = Patient Sera 2, individual value, n 1

Compound: COc1cccc2[nH]c(C(=O)N[C@@H](CC(C)C)C(=O)N[C@@H](C[C@@H]3CCNC3=O)C(=O)CO)cc12 [PF-00835231]
- solubility at 48 h [1]: 100 µg/mL (≈ 212 µM)
- assay values on storage at 4° C. and 25° C. (FIG. 13) [2]: consistent over the 30 day period tested
- assay values on storage at −20° C. (FIG. 13) [2]: consistent over the 7 day period tested
- Assay - 0 days [3, 18]: 2.3 mg/mL and 2.2 mg/mL
- Assay - 3 days [3, 18]: 2.3 mg/mL and 2.2 mg/mL
- Total Impurities - 0 days [3, 18]: 1.23 % peak area and 1.20 % peak area
- Total Impurities - 3 days [3, 18]: 1.38 % peak area and 1.37 % peak area
- Assay - 0 days [3, 19]: 0.6 mg/mL
- Assay - 3 days [3, 19]: 0.6 mg/mL
- Total Impurities - 0 days [3, 19]: 1.20 % peak area
- Total Impurities - 3 days [3, 19]: 1.33 % peak area
- Assay - 0 days ([3]; No dilution): 5.8 mg/mL and 5.6 mg/mL
- Assay - 3 days ([3]; No dilution): 5.8 mg/mL and 5.7 mg/mL
- Total Impurities - 0 days ([3]; No dilution): 1.25 % peak area
- Total Impurities - 3 days ([3]; No dilution): 1.44 % peak area and 1.48 % peak area
- assay values of filtered formulations over 7 days (FIG. 12) [4]: do not change over 7 days
- SARS-CoV-2 viral infectious titers in apical washes ([5]; 10 μM doses): viral titers below the limit of 366 detection at most time points
- SARS-CoV-2 viral infectious titers in apical washes ([5]; 0.025, 0.5 or 10 μM in basolateral chamber, washes at 12-hour increments): potently inhibit SARS-CoV-2 titers in a dose-dependent manner
- EC90 ([5]; Severe acute respiratory syndrome coronavirus 2, primary human airway epithelial model, antiviral time course, preliminary data, read-out: unbound EC90): < 500 nM
- SFLogD7.4 [6]: 1.7
- eliminated unchanged in the urine [7]: approximately 10%
- difference in antiviral potency in the presence and absence of P-gp inhibitor [8]: no significant difference in antiviral potency
- EC50 [9]: 140 nM and 144 nM
- EC90 [9]: 400 nM and 398 nM
- cytotoxicity in virus infected host cells ([10]; all the combinations with remdesivir tested): no noticeable cytotoxicity
- Bliss Synergy Score ([10]; Patient Sera 1, average, n 2): 1.60
- HSA Synergy Score ([10]; Patient Sera 1, average, n 2): 2.51
- Loewe Synergy Score ([10]; Patient Sera 1, average, n 2): 1.60
- Bliss Synergy Score [10, 20]: (0.366)
- HSA Synergy Score [10, 20]: (0.830)
- Loewe Synergy Score [10, 20]: (−0.0776)
- classification of the combination effect ([10]; patient #1 sera, 2 independent experiments): synergy
- classification of the combination effect ([10]; sera from patient #2, single experiment): additivity
- half-life [11]: < 1.5 h
- visual inspection after freezing and thawing [12]: No particulates were observed in any sample
- appearance of solutions after 5 days mixing at 25° C. [13]: remained clear
- IC50 [14]: > 200000 nM
- EC90 [15]: 1600 nM
- solubility at 25 h [16]: 200 µg/mL (≈ 423 µM)
- EC50 [17]: 184 nM
- EC90 [17]: 591 nM
